In the supplement of paper PMC11061612:

Experiments:
Experiment in all cases: combination Emax (second highest fraction inhibited in the dose matrix, 72 h); higher = more inhibition; extreme values may be limits of the assay
[1] = test system: CAL-54 (Kidney Carcinoma)
In short: (§1)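 After 24 hours at 37°C and 5% CO2 in 1536-well plates, cells in DMEM/F12 or RPMI plus 10% FBS received two-drug dose matrices for 72 hours. Viability came from CellTiter-Glo 2.0 luminescence and was scaled as inhibition, anchored at 0 by vehicle wells and at 1 by blank wells. Combination Emax is taken as the second-highest inhibition in the matrix, and Bliss excess as the observed combination effect less EA + EB − EA·EB, with EA and EB the single-agent effects.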

[2] = test system: KYSE-410 (Esophageal Squamous Cell Carcinoma)
In short: as §1

[3] = test system: RPMI-6666 (Non-Cancerous)
In short: as §1

[4] = test system: OVCAR-8 (Ovarian Carcinoma)
In short: as §1

[5] = test system: HDLM-2 (Hodgkin's Lymphoma)
In short: as §1

[6] = test system: K5 (Thyroid Gland Carcinoma)
In short: as §1

[7] = test system: HCC-15 (Squamous Cell Lung Carcinoma)
In short: as §1

[8] = test system: OC-314 (Ovarian Carcinoma)
In short: as §1

[9] = test system: CAL-51 (Breast Carcinoma)
In short: as §1

[10] = test system: SW1116 (Colorectal Carcinoma)
In short: as §1

[11] = test system: RT-112 (Bladder Carcinoma)
In short: as §1

[12] = test system: LoVo (Colorectal Carcinoma)
In short: as §1

[13] = test system: NCI-H69 (Small Cell Lung Carcinoma)
In short: as §1

[14] = test system: NB14 (Neuroblastoma)
In short: as §1

[15] = test system: HARA (Squamous Cell Lung Carcinoma)
In short: as §1

[16] = test system: SW1271 (Small Cell Lung Carcinoma)
In short: as §1

[17] = test system: NCI-H2795 (Mesothelioma)
In short: as §1

[18] = test system: UMC-11 (Other Solid Carcinomas)
In short: as §1

[19] = test system: MDA-MB-468 (Breast Carcinoma)
In short: as §1

[20] = test system: HO-1-u-1 (Oral Cavity Carcinoma)
In short: as §1

Row | Compound | combination Emax [1] | combination Emax [2] | combination Emax [3] | combination Emax [4] | combination Emax [5] | combination Emax [6] | combination Emax [7] | combination Emax [8] | combination Emax [9] | combination Emax [10] | combination Emax [11] | combination Emax [12] | combination Emax [13] | combination Emax [14] | combination Emax [15] | combination Emax [16] | combination Emax [17] | combination Emax [18] | combination Emax [19] | combination Emax [20]
1 | CC1(C)CCC(CN2CCN(c3ccc(C(=O)NS(=O)(=O)c4ccc(NCC5CCOCC5)c([N+](=O)[O-])c4)c(Oc4cnc5[nH]ccc5c4)c3)CC2)=C(c2ccc(Cl)cc2)C1 [Venetoclax] + C1CN(CCC1(C(=O)N[C@@H](CCO)C2=CC=C(C=C2)Cl)N)C3=NC=NC4=C3C=CN4 [Capivasertib] (first compound max 1 µM, 7x7, partner max 3 µM) | 0.325 | 0.203 | 0.963 | 0.184 | 0.514 | 0.546 | 0.232 | 0.316 | 0.487 | 0.0942 | 0.192 | 0.454 | 0.802 | 0.95 | 0.645 | 0.262 | 0.375 | 0.196 | 0.511 | 0.719
2 | NC1(C(=O)N[C@@H](CCO)c2ccc(Cl)cc2)CCN(c2ncnc3[nH]ccc23)CC1 [Capivasertib] + CC(=O)c1c(C)c2cnc(Nc3ccc(N4CCNCC4)cn3)nc2n(C2CCCC2)c1=O [Palbociclib] (first compound max 10 µM, 7x7, partner max 10 µM) | 0.658 | 0.549 | 0.675 | 0.221 | 0.29 | 0.653 | 0.633 | 0.515 | 0.55 | 0.136 | 0.415 | 0.722 | 0.764 | 0.598 | 0.689 | 0.349 | 0.489 | 0.553 | 0.508 | 0.806
3 | Cc1c2c(nn1C)CSCc1cc(n(C)n1)CSc1cc(c3ccccc3c1)OCCCc1c(C(=O)O)n(C)c3c-2c(Cl)ccc13 [AZD5991] + CC1(C)CCC(CN2CCN(c3ccc(C(=O)NS(=O)(=O)c4ccc(NCC5CCOCC5)c([N+](=O)[O-])c4)c(Oc4cnc5[nH]ccc5c4)c3)CC2)=C(c2ccc(Cl)cc2)C1 [Venetoclax] (first compound max 1 µM, 7x7, partner max 1 µM) | 0.163 | 0.156 | 0.911 | 0.189 | 1 | 0.183 | 0.323 | 0.147 | 0.521 | 0.145 | 0.99 | 0.147 | 0.522 | 1 | 0.294 | 0.0732 | 0.793 | 0.821 | 0.662 | 0.358
4 | COc1cccc(OCCCN)c1-c1cc(Nc2cnc(C#N)cn2)n[nH]1 [Prexasertib] + C=CCn1c(=O)c2cnc(Nc3ccc(N4CCN(C)CC4)cc3)nc2n1-c1cccc(C(C)(C)O)n1 [AZD1775] (first compound max 1 µM, partner max 1 µM) | 0.868 | 0.584 | 0.955 | 0.998 | 0.612 | 0.742 | 0.542 | 0.98 | 0.95 | 0.63 | 1 | 0.894 | 0.955 | 1 | 0.984 | 0.699 | 0.804 | 0.936 | 0.645 | 0.986
5 | C=CCn1c(=O)c2cnc(Nc3ccc(N4CCN(C)CC4)cc3)nc2n1-c1cccc(C(C)(C)O)n1 [AZD1775] + C1CN(CCC1(C(=O)N[C@@H](CCO)C2=CC=C(C=C2)Cl)N)C3=NC=NC4=C3C=CN4 [Capivasertib] (first compound max 3 µM, partner max 3 µM) | 0.782 | 0.663 | 0.921 | 0.812 | 0.769 | 0.603 | 0.878 | 0.915 | 0.941 | 0.48 | 0.836 | 0.937 | 0.83 | 0.98 | 0.929 | 0.682 | 0.408 | 0.696 | 0.741 | 0.913
6 | NC1(C(=O)N[C@@H](CCO)c2ccc(Cl)cc2)CCN(c2ncnc3[nH]ccc23)CC1 [Capivasertib] + COc1nnc2ccc(N3CCC(c4ccc(OCCN5CCN(C)C(=O)[C@H]5C)cc4)CC3)nn12 [AZD5153] (first compound max 10 µM, 7x7, partner max 1 µM) | 0.775 | 0.56 | 0.815 | 0.732 | 0.389 | 0.929 | 0.626 | 0.818 | 0.651 | 0.245 | 0.383 | 0.642 | 0.829 | 0.884 | 0.77 | 0.459 | 0.398 | 0.768 | 0.666 | 0.91
7 | CN(CCO)CC[C@H](CSc1ccccc1)Nc1ccc(S(=O)(=O)NC(=O)c2ccc(N3CCC([C@@H](O)c4ccccc4-c4ccc(Cl)cc4)CC3)cc2)cc1S(=O)(=O)C(F)(F)F [AZD4320] + C[C@@H]1COCCN1C2=NC(=NC(=C2)C3(CC3)[S@](=N)(=O)C)C4=C5C=CNC5=NC=C4 [AZD6738] (first compound max 1 µM, 7x7, partner max 10 µM) | 0.835 | 0.421 | 0.989 | 0.796 | 0.926 | 0.702 | 0.94 | 0.909 | 0.919 | 0.375 | 0.863 | 0.838 | 0.927 | 1 | 0.884 | 0.733 | 0.844 | 0.806 | 0.842 | 0.926
8 | CN(CCO)CC[C@H](CSc1ccccc1)Nc1ccc(S(=O)(=O)NC(=O)c2ccc(N3CCC([C@@H](O)c4ccccc4-c4ccc(Cl)cc4)CC3)cc2)cc1S(=O)(=O)C(F)(F)F [AZD4320] + Cn1cnc2c(F)c(Nc3ccc(Br)cc3Cl)c(C(=O)NOCCO)cc21 [Selumetinib] (first compound max 1 µM, 7x7, partner max 3 µM) | 0.311 | 0.391 | 0.992 | 0.498 | 0.847 | 0.679 | 1 | 0.351 | 0.487 | 0.599 | 0.552 | 0.516 | 0.885 | 1 | 0.219 | 0.534 | 0.827 | 0.467 | 0.789 | 0.465
9 | CC(=O)c1c(C)c2cnc(Nc3ccc(N4CCNCC4)cn3)nc2n(C2CCCC2)c1=O [Palbociclib] + Cn1cnc2c(F)c(Nc3ccc(Br)cc3Cl)c(C(=O)NOCCO)cc21 [Selumetinib] (first compound max 10 µM, 7x7, partner max 10 µM) | 0.616 | 0.261 | 0.65 | 0.146 | 0.335 | 0.627 | 0.547 | 0.478 | 0.289 | 0.396 | 0.427 | 0.679 | 0.487 | 0.705 | 0.499 | 0.428 | 0.89 | 0.462 | 0.441 | 0.465
10 | CCN(CCO)CCCOc1ccc2c(Nc3cc(CC(=O)Nc4cccc(F)c4)[nH]n3)ncnc2c1 [AZD2811] + C=CCn1c(=O)c2cnc(Nc3ccc(N4CCN(C)CC4)cc3)nc2n1-c1cccc(C(C)(C)O)n1 [AZD1775] (first compound max 1 µM, partner max 1 µM) | 0.622 | 0.267 | 0.902 | 0.791 | 0.746 | 0.507 | 0.723 | 0.839 | 0.815 | 0.208 | 0.531 | 0.835 | 0.602 | 1 | 0.788 | 0.586 | 0.441 | 0.832 | 0.434 | 0.54
11 | Cc1c2c(nn1C)CSCc1cc(n(C)n1)CSc1cc(c3ccccc3c1)OCCCc1c(C(=O)O)n(C)c3c-2c(Cl)ccc13 [AZD5991] + C[C@@H](Nc1cc(F)cc(F)c1)c1cc(C(=O)N(C)C)cc2c(=O)cc(N3CCOCC3)oc12 [AZD8186] (first compound max 1 µM, 7x7, partner max 3 µM) | 0.602 | 0.221 | 0.717 | 0.268 | 0.996 | 0.362 | 0.203 | 0.297 | 0.336 | 0.17 | 0.89 | 0.732 | 0.305 | 0.898 | 0.412 | 0.207 | 0.926 | 0.32 | 0.605 | 0.279
12 | COc1cc2c(cc1OCCCCCOc1cc3c(cc1OC)C(=O)N1C=C(C)C[C@H]1C=N3)N=C[C@@H]1CC(C)=CN1C2=O [SG3199] + O=C(c1cc(Cc2n[nH]c(=O)c3ccccc23)ccc1F)N1CCN(C(=O)C2CC2)CC1 [Olaparib] (first compound max 0.001 µM, 7x7, partner max 10 µM) | 0.121 | 0.136 | 0.501 | 0.268 | 0.167 | 0.196 | 0.145 | 0.205 | 0.202 | 0.0344 | 0.1 | 0.14 | 0.242 | 0.42 | 0.174 | 0.18 | 0.269 | 0.168 | 0.231 | 0.15
